Measured values reported in the NIST ThermoML archive (doi:10.1016/j.jct.2003.12.005).

Columns and labels:
[1] = 101.3 kPa, Liquid
[2] = xn = mol fraction of the nth substance listed; details: 101.3 kPa, Liquid

CCCCCCCC [octane]
[1]
Details	mass density [kg/m3]	speed of sound [m/s]	viscosity [mPa·s]
293.15 K	702.6	1193	0.538
298.15 K	698.5	1173	0.506
303.15 K	694.5	1152	0.478

CCCCCCCCCC [decane]
[1]
Details	mass density [kg/m3]	speed of sound [m/s]	viscosity [mPa·s]
293.15 K	729.9	1254	0.911
298.15 K	726.1	1235	0.845
303.15 K	722.3	1215	0.787

CCCCCCCC [octane] + CCC(C)O
[2], x2 = 0
Details	mass density [kg/m3]	speed of sound [m/s]	viscosity [mPa·s]
293.15 K	702.6	1193	0.538
298.15 K	698.5	1173	0.506
303.15 K	694.5	1152	0.478

CCC(C)O (configuration not stated) [butan-2-ol] + CCCCCCCCCCCC
[2], x1 = 1
Details	mass density [kg/m3]	speed of sound [m/s]	viscosity [mPa·s]
293.15 K	806.8	1230	3.623
298.15 K	802.7	1212	2.995
303.15 K	798.5	1194	2.493

CCC(C)O (configuration not stated) [butan-2-ol] + CCCCCCCC
[2]
Details	mass density, 293.15 K [kg/m3]	mass density, 298.15 K [kg/m3]	mass density, 303.15 K [kg/m3]	speed of sound, 293.15 K [m/s]	speed of sound, 298.15 K [m/s]	speed of sound, 303.15 K [m/s]	viscosity, 293.15 K [mPa·s]	viscosity, 298.15 K [mPa·s]	viscosity, 303.15 K [mPa·s]
x1 = 0.0481	704.6	700.5	696.4	1190	1169	1148	0.541	0.508	0.478
x1 = 0.0974	707.2	703.1	698.9	1187	1167	1146	0.554	0.519	0.488
x1 = 0.1984	713.3	709.2	704.9	1184	1163	1143	0.582	0.544	0.511
x1 = 0.289	719.4	715.2	711	1182	1161	1141	0.624	0.579	0.541
x1 = 0.3964	727.7	723.5	719.1	1181	1161	1141	0.697	0.644	0.599
x1 = 0.4923	736.2	731.9	727.5	1183	1162	1142	0.78	0.713	0.645
x1 = 0.5931	746.5	742.1	737.8	1187	1166	1146	0.927	0.84	0.761
x1 = 0.6922	758.1	753.8	749.4	1193	1173	1153	1.162	1.031	0.919
x1 = 0.7987	772.5	768.2	763.9	1202	1182	1163	1.574	1.361	1.191
x1 = 0.8988	788.3	784	779.7	1214	1195	1176	2.267	1.932	1.662
x1 = 0.9495	797.2	793	788.8	1222	1203	1185	2.809	2.353	1.99
x1 = 1	806.8	802.7	798.5	1230	1212	1194	3.623	2.995	2.493

CCCCCCCCCCCC [dodecane]
[1]
Details	mass density [kg/m3]	speed of sound [m/s]	viscosity [mPa·s]
293.15 K	748.5	1297	1.454
298.15 K	744.9	1278	1.327
303.15 K	741.3	1259	1.219

CCC(C)O (configuration not stated) [butan-2-ol]
[1]
Details	mass density [kg/m3]	speed of sound [m/s]	viscosity [mPa·s]
293.15 K	806.8	1230	3.623
298.15 K	802.7	1212	2.995
303.15 K	798.5	1194	2.493

CCCCCCCCCC [decane] + CCC(C)O
[2]
Details	mass density, 293.15 K [kg/m3]	mass density, 298.15 K [kg/m3]	mass density, 303.15 K [kg/m3]	speed of sound, 293.15 K [m/s]	speed of sound, 298.15 K [m/s]	speed of sound, 303.15 K [m/s]	viscosity, 293.15 K [mPa·s]	viscosity, 298.15 K [mPa·s]	viscosity, 303.15 K [mPa·s]
x2 = 0	729.9	726.1	722.3	1254	1235	1215	0.911	0.845	0.787
x2 = 0.0488	730.9	727.1	723.2	1250	1230	1210	0.9	0.833	0.774
x2 = 0.0992	732.4	728.5	724.6	1246	1226	1207	0.905	0.836	0.776
x2 = 0.2038	736.2	732.2	728.2	1240	1220	1201	0.926	0.854	0.791
x2 = 0.3041	740.4	736.4	732.4	1235	1215	1195	0.956	0.88	0.812
x2 = 0.3972	745	741	736.9	1230	1211	1191	1.008	0.922	0.847
x2 = 0.498	751	746.9	742.8	1227	1207	1187	1.09	0.989	0.901
x2 = 0.5972	758.1	754	749.8	1224	1204	1185	1.222	1.091	0.983
x2 = 0.703	767.5	763.3	759	1223	1203	1184	1.454	1.286	1.142
x2 = 0.8001	777.7	773.5	769.2	1224	1204	1185	1.787	1.548	1.351
x2 = 0.9002	790.5	786.4	782.1	1225	1207	1188	2.389	2.026	1.736
x2 = 0.9497	798.2	794	789.8	1228	1209	1191	2.879	2.418	2.047

CCCCCCCCCCCC [dodecane] + CCC(C)O
[2]
Details	mass density, 293.15 K [kg/m3]	mass density, 298.15 K [kg/m3]	mass density, 303.15 K [kg/m3]	speed of sound, 293.15 K [m/s]	speed of sound, 298.15 K [m/s]	speed of sound, 303.15 K [m/s]	viscosity, 293.15 K [mPa·s]	viscosity, 298.15 K [mPa·s]	viscosity, 303.15 K [mPa·s]
x2 = 0	748.5	744.9	741.3	1297	1278	1259	1.454	1.327	1.219
x2 = 0.0486	749.3	745.6	741.9	1293	1274	1255	1.44	1.314	1.204
x2 = 0.0976	750.2	746.4	742.7	1289	1270	1251	1.431	1.305	1.194
x2 = 0.2046	752.5	748.7	744.9	1282	1263	1243	1.429	1.299	1.188
x2 = 0.2956	754.9	751.1	747.2	1276	1256	1237	1.432	1.297	1.179
x2 = 0.3959	758.1	754.2	750.3	1268	1249	1230	1.457	1.316	1.196
x2 = 0.4979	762.2	758.3	754.3	1261	1242	1222	1.503	1.351	1.22
x2 = 0.598	767.2	763.2	759.1	1255	1235	1216	1.603	1.425	1.276
x2 = 0.7021	773.9	769.8	765.6	1248	1229	1209	1.798	1.576	1.392
x2 = 0.8008	781.9	777.8	773.6	1242	1223	1204	2.068	1.785	1.566
x2 = 0.9002	792.7	788.5	784.3	1236	1217	1199	2.576	2.184	1.866
x2 = 0.9504	799.1	794.9	790.7	1233	1215	1196	2.989	2.508	2.122

CCC(C)O (configuration not stated) [butan-2-ol] + CCCCCCCCCC
[2], x1 = 1
Details	mass density [kg/m3]	speed of sound [m/s]	viscosity [mPa·s]
293.15 K	806.8	1230	3.623
298.15 K	802.7	1212	2.995
303.15 K	798.5	1194	2.493
